From EP0275215B1, “Contrast agents for the gastrointestinal tract” (GUERBET S.A., priority 1987, dated 1988)

Key:
[1] = Binding of metal complexes to particulate carrier (1H NMR relaxation of supernatant); details: to calcium phosphate neutral; 0.4ml 50mM metal complex, pH 7.5, 3 minutes
Description: (§1) The particulates used were generally used as suspensions in distilled water for these studies (250mg/ml). The solid from 1ml of particulate solution was isolated by centrifugation and the supernatant removed. 0.4ml of a 50mM metal complex solution at pH = 7.5 was added and the solid resuspended. […] After 3 minutes the solid was isolated by centrifugation washed once by resuspension in distilled water (0.4ml) followed by recentrifugation to isolate the products. The initial supernatant was analysed by ¹H NMR relaxation measurements at 200MHz and the amount of metal complex bound to the particulate calculated.

[2] = as above; details: to aluminium hydroxide; 0.4ml 50mM metal complex, pH 7.5, 3 minutes
Description: as §1

[3] = as above; details: to aluminium phosphate; 0.4ml 50mM metal complex, pH 7.5, 3 minutes
Description: as §1

[4] = as above; details: to silica; 0.4ml 50mM metal complex, pH 7.5, 3 minutes
Description: (§2) The particulates used were generally used as suspensions in distilled water for these studies (250mg/ml). The solid from 1ml of particulate solution was isolated by centrifugation and the supernatant removed. 0.4ml of a 50mM metal complex solution at pH = 7.5 was added and the solid resuspended. […] After 3 minutes the solid was isolated by centrifugation washed once by resuspension in distilled water (0.4ml) followed by recentrifugation to isolate the products. The initial supernatant was analysed by ¹H NMR relaxation measurements at 200MHz and the amount of metal complex bound to the particulate calculated. The particulates were resuspended at 10 mg/ml and the T1 and T2 relaxation times measured at 10MHz and 37°C.

[5] = as above; details: to calcium phosphate basic; 0.4ml 50mM metal complex, pH 7.5, 3 minutes
Description: as §1

[6] = as above; details: to calcium pyrophosphate; 0.4ml 50mM metal complex, pH 7.5, 3 minutes
Description: as §2

[7] = as above; details: to magnesium trisilicate; 0.4ml 50mM metal complex, pH 7.5, 3 minutes
Description: as §2

[8] = as above; details: to calcium hydroxide; 0.4ml 50mM metal complex, pH 7.5, 3 minutes
Description: as §1

[9] = as above; details: to magnesium hydroxide; 0.4ml 50mM metal complex, pH 7.5, 3 minutes
Description: as §2

[10] = as above; details: to sodium phosphate glass; 0.4ml 50mM metal complex, pH 7.5, 3 minutes
Description: as §2

[11] = Binding of 153Gd labelled gadolinium complexes, radioactive assay; details: total activity of the filtrate as percentage of the original; 12.5mM Gd, 25mM phosphonate where present
Description: The binding of gadolinium complexes was also assayed using ¹⁵³Gd labelled solutions. The particulates were used as suspensions (250mg/ml) and isolated by centrifugation. 0.4ml of a radioactively labelled gadolinium complex was then added and the solid resuspended. After three minutes the solid was filtered through a glass sinter and washed with water (≃10ml). The total activity of the filtrate was measured and expressed as a percentage of the original. The gadolinium concentration of the complex in this assay was 12.5mM and the concentration of phosphonate (where present) was 25mM. A further assay involved the addition of 25mM, and 37.5mM Gd with concomitant increase in the phosphonate concentration.

[12] = Stability of 153Gd labelled adducts in acid solution; assay type: physicochemical; details: 5ml 0.2M HCl, 24hrs, percentage of the original activity
Description: The stability of the adducts in acid solution was assayed using ¹⁵³Gd labelled adducts. The adducts were prepared as in the binding assays described previously. 5ml of 0.2M HCl was then added to the adduct which was resuspended and left for 24hrs. The suspensions were then filtered through a glass sinter and washed with 5ml distilled water. The total filtrate was then placed into an ion chamber and the total activity measured.

[13] = Binding of metal complexes to particulate carrier (1H NMR relaxation of supernatant); details: to calcium phosphate ortho; 0.4ml 50mM metal complex, pH 7.5, 3 minutes
Description: The solid from 1ml of particulate solution was isolated by centrifugation and the supernatant removed. 0.4ml of a 50mM metal complex solution at pH = 7.5 was added and the solid resuspended. […] After 3 minutes the solid was isolated by centrifugation washed once by resuspension in distilled water (0.4ml) followed by recentrifugation to isolate the products. The initial supernatant was analysed by ¹H NMR relaxation measurements at 200MHz and the amount of metal complex bound to the particulate calculated.

Row | Molecule | % Bound [1] [%] | % Bound [2] [%] | % Bound [3] [%] | % Bound [4] [%] | % Bound [5] [%] | % Bound [6] [%] | % Bound [7] [%] | % Bound [8] [%] | % Bound [9] [%] | % Bound [10] [%] | BINDING TO CaPO₄ - RADIOACTIVE ASSAY [11] [%] | BINDING TO CaPYROPHOSPHATE - RADIOACTIVE ASSAY [11] [%] | PERCENTAGE ACTIVITY IN SUPERNATANT ([12]; adduct with Ca₂P₂O₇) [%] | PERCENTAGE ACTIVITY IN SUPERNATANT ([12]; adduct with Ca₃(PO₄)₂) [%] | % Bound [13] [%]
1 | [Cl][Fe]([Cl])[Cl] [FeCl₃] | 92 | 89 | 78 | 46 | 96 | 50 | 93 | 98 | 96 | 41 | – | – | – | – | –
2 | [Cl][Gd]([Cl])[Cl] [GdCl₃] | 98 | 98 | – | 66 | 99 | 68 | 89 | 99 | 99 | 48 | 2.07 | 0.14 | 0.41 | 0.54 | –
3 | ferric citrate | 68 | 80 | 18 | 16 | 80 | 28 | 50 | 74 | 89 | 26 | – | – | – | – | 82
